In data set [1] the test system is Candida albicans. The data set is described as follows: Antifungal activity against fluconazole-resistant Candida albicans TIMM3164. Format: functional.
The subject of data set [2] is Candida albicans. The data set is described as follows: Antifungal activity against Candida albicans ATCC 24433. The data set is classed as functional.
Data set [3] relates to Candida albicans. The data set is described as follows: Antifungal activity against Candida albicans SANK 51486. The data set is classed as functional.
Data set [4] has as its system Aspergillus fumigatus. Nature of the data set: Antifungal activity against Aspergillus fumigatus SANK 10569. Format: functional.
A further data set has as its system Nakaseomyces glabratus. Nature of the data set: Antifungal activity against Candida glabrata ATCC 90030. Format: functional.
Data set [5] relates to Aspergillus fumigatus. The data set is described as follows: Antifungal activity against Aspergillus fumigatus ATCC 26430. Format: functional.
The next data set concerns Candida tropicalis. Nature of the data set: Antifungal activity against Candida tropicalis ATCC 750. The data set is classed as functional.
In another data set the test system is Pichia kudriavzevii. Nature of the data set: Antifungal activity against Candida krusei ATCC 6258. Format: functional.
Data set [6] in a line: Bioavailability in rat at 20 mg/kg, po. The data set is classed as ADME, organism-based. The settings on record: in vivo.
The test system of a further data set is Aspergillus flavus. The data set is described as follows: Antifungal activity against Aspergillus flavus SANK 18497. Format: functional.
The next data set deals with Candida parapsilosis. The data set is described as follows: Antifungal activity against Candida parapsilosis ATCC 90018. The data set is classed as functional. As to conditions: Lodderomyces parapsilosis.
Data set [7] in a line: Chemical stability assessed as half life in HCl. Format: physicochemical.
For data set [8], the system named is Candida albicans. The data set is described as follows: Antifungal activity against Candida albicans ATCC 64550. The data set is classed as functional.
In the next data set the test system is Cryptococcus neoformans. The data set is described as follows: Antifungal activity against Cryptococcus neoformans TIMM 1855. The data set is classed as functional.

Data on 3 compounds can be found in ChEMBL document CHEMBL1153358, “Amide analogs of antifungal dioxane-triazole derivatives: synthesis and in vitro activities” (Bioorg Med Chem Lett, 2009).

Each structure is given as a SMILES string. ≈ marks a conversion by molar mass, not a printed value. Some results are limits rather than exact numbers.

Usually MIC stands for the least concentration at which growth counts as inhibited. The half-life is the time needed for the level to fall by half in the phase considered. In the case of `C[C@@H](S[C@H]1CO[C@H](c2ccc(C(=O)Nc3ccc(C#N)cc3)cc2)OC1)[C@](O)(Cn1cncn1)c1ccc(F)cc1F`, the MIC against Candida albicans [1] is ≤ 0.008 µg/mL; against Candida albicans [2], ≤ 0.008 µg/mL; against Candida albicans [3], ≤ 0.008 µg/mL; against Aspergillus fumigatus [4], 0.031 µg/mL (≈ 0.0524 µM); in the data set on Nakaseomyces glabratus, 2 µg/mL (≈ 3.38 µM); with Aspergillus fumigatus [5] it was 0.031 µg/mL (≈ 0.0524 µM). In addition, the MIC in the data set on Candida tropicalis was 0.016 µg/mL (≈ 0.027 µM); in the data set on Pichia kudriavzevii, 0.063 µg/mL (≈ 0.106 µM); against Aspergillus flavus, 0.125 µg/mL (≈ 0.211 µM); in the data set on Candida parapsilosis, ≤ 0.008 µg/mL; against Candida albicans [8], 0.25 µg/mL (≈ 0.423 µM); in the data set with Cryptococcus neoformans, 0.031 µg/mL (≈ 0.0524 µM). In addition, in [6], the bioavailability amounted to 31.7%. Besides, in [7], the half-life amounted to 2.67 h.
Consider `C[C@@H](S[C@H]1CO[C@H](/C=C/C=C/c2ccc(C#N)cc2F)OC1)[C@](O)(Cn1cncn1)c1ccc(F)cc1F` [EMBECONAZOLE], for which the minimum inhibitory concentration (MIC) is 0.063 µg/mL (≈ 0.116 µM) in the data set on Candida albicans [1]; 0.016 µg/mL (≈ 0.0295 µM) in the data set with Candida albicans [2]; ≤ 0.008 µg/mL with Candida albicans [3]; 0.063 µg/mL (≈ 0.116 µM) against Aspergillus fumigatus [4]; 1 µg/mL (≈ 1.84 µM) against Nakaseomyces glabratus; 0.063 µg/mL (≈ 0.116 µM) in the data set with Aspergillus fumigatus [5]. For the same compound, the MIC in the data set with Candida tropicalis is 0.25 µg/mL (≈ 0.461 µM); in the data set with Pichia kudriavzevii, 0.25 µg/mL (≈ 0.461 µM); with Aspergillus flavus, 0.25 µg/mL (≈ 0.461 µM); in the data set with Candida parapsilosis, 0.016 µg/mL (≈ 0.0295 µM); in the data set on Candida albicans [8], 0.5 µg/mL (≈ 0.922 µM); in the data set on Cryptococcus neoformans, 0.016 µg/mL (≈ 0.0295 µM). For the same compound, the bioavailability in data set [6] amounted to 113%. The half-life in data set [7] turned out to be 0.107 h.
In the case of `CCC(C)n1ncn(-c2ccc(N3CCN(c4ccc(OCC5COC(Cn6cncn6)(c6ccc(Cl)cc6Cl)O5)cc4)CC3)cc2)c1=O` (stereo not given) [ITRACONAZOLE], the MIC against Candida albicans [1] amounted to 0.25 µg/mL (≈ 0.354 µM); against Candida albicans [2], 0.125 µg/mL (≈ 0.177 µM); against Candida albicans [3], 0.031 µg/mL (≈ 0.0439 µM); in the data set with Aspergillus fumigatus [4], 0.25 µg/mL (≈ 0.354 µM); in the data set on Nakaseomyces glabratus, 1 µg/mL (≈ 1.42 µM); with Aspergillus fumigatus [5] it was 0.25 µg/mL (≈ 0.354 µM). Further, the MIC against Candida tropicalis was determined as 0.5 µg/mL (≈ 0.709 µM); against Pichia kudriavzevii, 0.5 µg/mL (≈ 0.709 µM); against Aspergillus flavus, 0.5 µg/mL (≈ 0.709 µM); in the data set with Candida parapsilosis, 0.125 µg/mL (≈ 0.177 µM); against Candida albicans [8] it was 1 µg/mL (≈ 1.42 µM); with Cryptococcus neoformans, 0.25 µg/mL (≈ 0.354 µM).
